Marks after values point to notes of the source that are not given here.
How the values were obtained:
[1] = test system: allergic contact dermatitis response in mice; assay: Allergic contact dermatitis (TDI) model in mice, mouse ear swelling test; type: in vivo; conditions: topical, 2 h before challenge
Description: The anti-inflammatory and anti-allergic effects of compound 1a were assessed in a mouse model of allergic contact dermatitis, a response driven primarily by T helper type 2 (Th2) cells. […] In this model, an allergic dermatitis response is obtained by sensitizing mice to TDI and subsequently challenging them with antigen by topical administration onto the ears. A quantitative assessment of anti-inflammatory and anti-allergic effects of topically or orally administered test compounds is possible by measuring the resulting ear swelling.
Female BALB/c-mice were obtained from Charles River (Sulzfeld, Germany) at age 8 weeks. All animals were housed in groups of eight per cage at 22° C. with a 12 h light/dark-cycle. Water and a standard diet (Altromin, Lage/Lippe, Germany) were available ad libitum. All animals were acclimatized for one week before experimental procedures were commenced.
Experimental procedures for BALB/c mice housing, TDI sensitization and challenge, and measurement of ear thickness were performed as previously described (Baumer et al., J Pharm Pharmacol. 55:1107-1114 (2003)) with the following modifications. For active sensitization, 100 μL of 5% (w/v) TDI was administered to the shaved and stripped abdominal epidermis on day one, and for the next three consecutive days, 50 μL of 5% (w/v) TDI was applied. The allergic reaction was boosted 21 days later by application of 50 μL of 0.5% (w/v) TDI. For the examination of test compound effects, the left ears were used for the TDI challenge (20 μL of 0.5% in acetone) and ear thickness measured 3 h before and 24 h after challenge.
Administration time: to determine optimal time for administration treatment groups were treated orally by gavage with 100 mg/kg of compound 1a (suspended in 0.5% tylose, 10 mL/kg) 1, 4 or 16 h before topical TDI challenge. One group was treated with 100 mg/kg miltefosine orally, 16 h before challenge (based on available data for optimal administration time for miltefosine) and vehicle treated mice received tylose (10 mL/kg) orally, 4 h before challenge.
Comparison with dexamethasone: one group of mice was treated orally with compound 1a at 100 mg/kg suspended in 0.5% tylose, 4 h before topical TDI challenge. Vehicle treated mice received 0.5% tylose orally 4 h before challenge. As a positive control, dexamethasone was administered in saline solution at 1 mg/kg or 3 mg/kg, 2 h and 30 min before challenge and 1 h after challenge. The dose and dosing scheme for dexamethasone was based on previous experience showing a maximal effect in this model.
[…] The solution was applied, 2 h before topical TDI challenge by administration of 10 μl onto each of the inner and outer surfaces of the left ears. A vehicle group (n=5) was treated with propyleneglycol. As a positive control, diflorasone diacetate was administered at 0.01% (low dose) and 0.05% (high dose) in 20 μl acetone, 2 h before challenge. A basal control group was left untreated.
Mean and standard error of the mean (SEM) were calculated from individual ear edema values. Statistical evaluation was a one-way analysis of variance (ANOVA) (if the test for normal distribution was passed) or the Kruskal-Wallis one-way ANOVA on Ranks (if the normal distribution test failed). Both were followed by a post-hoc test (Dunnett's method or Dunn's test, respectively). A p<0.05 was considered to be significant.

[2] = test system: local lymph node reaction; assay: Local lymph node weight and cell count after TDI challenge; conditions: topical, diflorasone 0.1% and 0.5%, 1a 2% or 6%
Description: Directly after sacrifice, the ear draining lymph node (Ln. auricularis) was prepared and excised. Organ weight was determined by means of an analytical balance (Kern, Balingen, Germany). Single cell suspensions were prepared by means of a glass potter (VWR, Darmstadt, Germany) and cells were counted with a hemocytometer (Neubauer, VWR, Germany).
One of the most undesirable side-effects of corticosteroid administration is immunosuppression, which leads to the inability to effectively address parasitic infection, wound healing and tumor growth. In the current study, the local lymph node reaction after TDI challenge (lymph node weight and cell number) was determined to assess the response of immune organs.

Which “Inhibition of mouse ear swelling” value ([1]; 0.1%) does the source give for CC(=O)OCC(=O)[C@@]1(OC(C)=O)[C@@H](C)C[C@H]2[C@@H]3C[C@H](F)C4=CC(=O)C=C[C@]4(C)[C@@]3(F)[C@@H](O)C[C@@]21C [Diflorasone, diflorasone diacetate, reference compound] here?
Its value is 101.1*** %.

And the “Inhibition of mouse ear swelling” value ([1]; 0.5%)?
Its value is 110.8*** %.

And the “local lymph node reaction (lymph node weight and cell number)” value [2]?
Its value is “highly significant reduction”.
